Measurements from PubChem BioAssay AID328 (DTP/NCI, 2004).
Values joined by “and” are separate entries in the source; they are usually repeats but may differ in a detail not shown here. Equal entries are not always repeated. Toxic doses and inconclusive results are not listed. The calls were made as follows: active = survival T/C of 150% or more; inactive = T/C below 125% in these data.

System: BDF1 mice, P388 leukemia ip, median survival T/C
Test: NCI In Vivo Anticancer Drug Screen. Data for tumor model P388 Leukemia (intraperitoneal) in B6D2F1 (BDF1) mice
Settings: endpoint: median survival time, higher = longer survival
Method in brief: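 Antitumour effect was judged in vivo: survival in drug-treated mice, normalised to that of vehicle-dosed controls, gives the reported T/C.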

[1] = dose: 25.0 mg/kg/injection, schedule: Q01DX009 (ip), vehicle: saline
[2] = dose: 50.0 mg/kg/injection, schedule: Q01DX009 (ip), vehicle: saline with Tween-80
[3] = dose: 100.0 mg/kg/injection, schedule: Q01DX009 (ip), vehicle: saline with Tween-80
[4] = dose: 100.0 mg/kg/injection, schedule: Q04DX003 (ip), vehicle: saline with Tween-80
[5] = dose: 200.0 mg/kg/injection, schedule: Q01DX009 (ip), vehicle: saline with Tween-80
[6] = dose: 200.0 mg/kg/injection, schedule: Q04DX003 (ip), vehicle: saline with Tween-80

Measured: T/C

O=c1[nH]nnc2ccccc12
inactive: [1] 95 % of control | dose: 25.0 mg/kg/injection, schedule: Q04DX003 (ip), vehicle: Klucel (hydroxypropylcellulose) (HPC) 100 % of control | dose: 37.5 mg/kg/injection, schedule: Q04DX003 (ip), vehicle: Klucel (hydroxypropylcellulose) (HPC) 100 % of control | dose: 50.0 mg/kg/injection, schedule: Q01DX009 (ip), vehicle: saline 95 % of control | dose: 50.0 mg/kg/injection, schedule: Q04DX003 (ip), vehicle: Klucel (hydroxypropylcellulose) (HPC) 104 % of control | dose: 75.0 mg/kg/injection, schedule: Q04DX003 (ip), vehicle: Klucel (hydroxypropylcellulose) (HPC) 95 % of control | dose: 100.0 mg/kg/injection, schedule: Q01DX009 (ip), vehicle: saline 90 % of control | dose: 100.0 mg/kg/injection, schedule: Q04DX003 (ip), vehicle: Klucel (hydroxypropylcellulose) (HPC) 100 % of control | dose: 150.0 mg/kg/injection, schedule: Q01DX009 (ip), vehicle: Klucel (hydroxypropylcellulose) (HPC) 100 % of control | dose: 150.0 mg/kg/injection, schedule: Q04DX003 (ip), vehicle: Klucel (hydroxypropylcellulose) (HPC) 109 % of control

C=CCOc1ccccc1OC
inactive: dose: 25.0 mg/kg/injection, schedule: Q01DX009 (ip), vehicle: saline with Tween-80 100 % of control | [2] 113 % of control | [3] 107 % of control and 113 % of control | [4] 100 % of control | [5] 100 % of control | [6] 113 % of control

Cc1ccc2c(c1)CC(C)([CH2][Hg][Cl])O2 (centres undefined)
inactive: dose: 3.0 mg/kg/injection, schedule: Q01DX009 (ip), vehicle: Klucel (hydroxypropylcellulose) (HPC) 94 % of control | dose: 3.0 mg/kg/injection, schedule: Q04DX003 (ip), vehicle: Klucel (hydroxypropylcellulose) (HPC) 103 % of control | dose: 6.0 mg/kg/injection, schedule: Q01DX009 (ip), vehicle: Klucel (hydroxypropylcellulose) (HPC) 105 % of control | dose: 6.0 mg/kg/injection, schedule: Q04DX003 (ip), vehicle: Klucel (hydroxypropylcellulose) (HPC) 94 % of control | dose: 12.0 mg/kg/injection, schedule: Q01DX009 (ip), vehicle: Klucel (hydroxypropylcellulose) (HPC) 119 % of control | dose: 12.0 mg/kg/injection, schedule: Q04DX003 (ip), vehicle: Klucel (hydroxypropylcellulose) (HPC) 100 % of control

CC(=O)NC1C(S[As](C)C)OC(COC(C)=O)C(OC(C)=O)C1OC(C)=O (centres undefined)
inactive: [3] 124 % of control

CC(C)n1c(=O)c2ccccc2[s+]1-c1ccccc1 (centres undefined)
inactive: dose: 100.0 mg/kg/injection, schedule: Q01DX001 (ip), vehicle: saline with Tween-80 95 % of control | dose: 200.0 mg/kg/injection, schedule: Q01DX001 (ip), vehicle: saline with Tween-80 95 % of control | dose: 400.0 mg/kg/injection, schedule: Q01DX001 (ip), vehicle: saline with Tween-80 92 % of control

CC(C)n1c(=S)[nH]c2ccccc2c1=O
inactive: dose: 100.0 mg/kg/injection, schedule: Q01DX001 (ip), vehicle: Klucel (hydroxypropylcellulose) (HPC) 100 % of control | dose: 200.0 mg/kg/injection, schedule: Q01DX001 (ip), vehicle: Klucel (hydroxypropylcellulose) (HPC) 100 % of control | dose: 400.0 mg/kg/injection, schedule: Q01DX001 (ip), vehicle: Klucel (hydroxypropylcellulose) (HPC) 100 % of control

CC(NC(=O)C(C)NC(=O)C(N)CCS(C)(=O)=NP(=O)(O)O)C(=O)O (centres undefined)
inactive: dose: 12.5 mg/kg/injection, schedule: Q01DX009 (ip), vehicle: saline 101 % of control | [1] 110 % of control

COc1ccc(C(C(N)=O)N2CCCC2)cc1 (centres undefined)
inactive: [4] 110 % of control | [6] 120 % of control | dose: 400.0 mg/kg/injection, schedule: Q04DX003 (ip), vehicle: saline with Tween-80 100 % of control

CCOC(=O)NC(C)(C)CN(C(=O)OCC)c1ccccc1
inactive: dose: 44.0 mg/kg/injection, schedule: Q04DX003 (ip), vehicle: saline with Tween-80 95 % of control | dose: 66.0 mg/kg/injection, schedule: Q04DX003 (ip), vehicle: saline with Tween-80 104 % of control | [4] 90 % of control | dose: 150.0 mg/kg/injection, schedule: Q04DX003 (ip), vehicle: saline with Tween-80 95 % of control

COc1cc(/C=N\NC(=O)OC(C)(C)C)cc(OC)c1OC
inactive: [2] 118 % of control | [3] 113 % of control | [5] 86 % of control

CCCCCCCCCCCCNCc1ccc(O)cc1
inactive: dose: 25.0 mg/kg/injection, schedule: Q04DX003 (ip), vehicle: saline with Tween-80 104 % of control | dose: 50.0 mg/kg/injection, schedule: Q04DX003 (ip), vehicle: saline with Tween-80 100 % of control | [4] 108 % of control
